How the values were obtained:
Format in all cases: physicochemical
[1] = in vitro dissolution test using a syringe method (Drug 2); conditions: for AUC / Drug 2 Concentration: PBS pH 6.5, 2 wt % NaTC/POPC
Procedure: An 8.0 mg sample of the adsorbate was added to 40 mL phosphate buffered saline (PBS) at pH 6.5 and 290 mOsm/kg, containing 2 wt % sodium taurocholic acid and 1-palmitoyl-2-oleyl-sn-glycero-3-phosphocholine (NaTC/POPC, with a 4/1 weight ratio). The concentration of drug would have been 50 μg/mL, if all of the drug had dissolved. The test solution was stirred at room temperature in a syringe equipped with a Gelman Acrodisc 13 CR 0.45 μm PTFE filter. At each sample time, about 2 mL of the test solution was pushed through the filter and analyzed using UV at a wavelength of 256 nm to determine the concentration of torcetrapib in solution. […] Crystalline torcetrapib alone is shown as a comparison.
Crystalline Drug 2 alone is shown as a comparison. In all cases, a sufficient amount of sample was added so that the concentration of drug would have been 50 μg/mL, if all of the drug had dissolved.

[2] = in vitro dissolution test using a syringe method (torcetrapib); conditions: for Torcetrapib Concentration / AUC: PBS pH 6.5, 2 wt % NaTC/POPC
Procedure: An 8.0 mg sample of the adsorbate was added to 40 mL phosphate buffered saline (PBS) at pH 6.5 and 290 mOsm/kg, containing 2 wt % sodium taurocholic acid and 1-palmitoyl-2-oleyl-sn-glycero-3-phosphocholine (NaTC/POPC, with a 4/1 weight ratio). The concentration of drug would have been 50 μg/mL, if all of the drug had dissolved. The test solution was stirred at room temperature in a syringe equipped with a Gelman Acrodisc 13 CR 0.45 μm PTFE filter. At each sample time, about 2 mL of the test solution was pushed through the filter and analyzed using UV at a wavelength of 256 nm to determine the concentration of torcetrapib in solution. Samples were collected at 1, 2, 3, 5, 10, 15, 20, 30, 45, 60, and 90 minutes. Crystalline torcetrapib alone is shown as a comparison.
The dissolution rate constant was obtained by performing a least squares fit of the experimental data using the following equation: […]
In this test, 7.855 mg of the Solid Amorphous Adsorbate 2 was added to 40 mL phosphate buffered saline (PBS) at pH 6.5 and 290 mOsm/kg, containing 2 wt % NaTC/POPC (the concentration of drug would have been 49 μg/mL, if all of the drug had dissolved).

[3] = aqueous solubility of torcetrapib

CC[C@@H]1C[C@H](N(Cc2cc(C(F)(F)F)cc(C(F)(F)F)c2)C(=O)OC)c2cc(C(F)(F)F)ccc2N1C(=O)OC(C)C [Drug 2, [2R,4S]4-[(3,5-bis-trifluoromethyl-benzyl)-methoxycarbonyl-amino]-2-ethyl-6-trifluoromethyl-3,4-dihydro-2H-quinoline-1-carboxylic acid isopropyl ester]
Dissolution Rate Constant, k ([1]; Drug 2): 0.005 min⁻¹
AUC90 ([1]; Drug 2, area under the aqueous concentration versus time curve after 90 minutes): 383 µg·min/mL
AUC ([1]; Drug 2, time 0 min): 0 µg·min/mL
AUC ([1]; Drug 2, time 0.5 min): 0 µg·min/mL
AUC ([1]; Drug 2, time 5 min): 2.6 µg·min/mL
AUC ([1]; Drug 2, time 15 min): 17 µg·min/mL
AUC ([1]; Drug 2, time 45 min): 111 µg·min/mL
AUC ([1]; Drug 2, time 90 min): 383 µg·min/mL
MDC90 ([1]; maximum concentration of Drug 2 in solution during the first 90 minutes): 7.6 µg/mL
Drug 2 Concentration ([1]; time 0 min): 0 µg/mL
Drug 2 Concentration ([1]; time 0.5 min): 0.1 µg/mL
Drug 2 Concentration ([1]; time 5 min): 1.0 µg/mL
Drug 2 Concentration ([1]; time 15 min): 1.8 µg/mL
Drug 2 Concentration ([1]; time 45 min): 4.5 µg/mL
Drug 2 Concentration ([1]; time 90 min): 7.6 µg/mL

CCOC(=O)N1c2ccc(C(F)(F)F)cc2[C@@H](N(Cc2cc(C(F)(F)F)cc(C(F)(F)F)c2)C(=O)OC)C[C@H]1CC [torcetrapib, [2R,4S]-4-[(3,5-bis-trifluoromethyl-benzyl)-methoxycarbonyl-amino]-2-ethyl-6-trifluoromethyl-3,4-dihydro-2H-quinoline-1-carboxylic acid ethyl ester]
MDCmax,90 ([2]; maximum concentration of torcetrapib in solution during the first 90 minutes): <0.5 µg/mL
Torcetrapib Concentration ([2]; time 0 min): <0.5 µg/mL
Torcetrapib Concentration ([2]; time 1 min): <0.5 µg/mL
Torcetrapib Concentration ([2]; time 2 min): <0.5 µg/mL
Torcetrapib Concentration ([2]; time 3 min): <0.5 µg/mL
Torcetrapib Concentration ([2]; time 5 min): <0.5 µg/mL
Torcetrapib Concentration ([2]; time 10 min): <0.5 µg/mL
Torcetrapib Concentration ([2]; time 15 min): <0.5 µg/mL
Torcetrapib Concentration ([2]; time 20 min): <0.5 µg/mL
Torcetrapib Concentration ([2]; time 30 min): <0.5 µg/mL
Torcetrapib Concentration ([2]; time 45 min): <0.5 µg/mL
Torcetrapib Concentration ([2]; time 60 min): <0.5 µg/mL
Torcetrapib Concentration ([2]; time 90 min): <0.5 µg/mL
AUC90 ([2]; torcetrapib, area under the aqueous concentration versus time curve after 90 minutes): <45 min-μg/mL
Dissolution Rate Constant, k ([2]; torcetrapib, least squares fit of [D]t=[D]o(1−e^−kt)): <0.0005 min⁻¹
AUC ([2]; torcetrapib, time 0 min): 0 µg·min/mL
AUC ([2]; torcetrapib, time 1 min): 0 µg·min/mL
AUC ([2]; torcetrapib, time 2 min): <1 µg·min/mL
AUC ([2]; torcetrapib, time 3 min): <1 µg·min/mL
AUC ([2]; torcetrapib, time 5 min): <2 µg·min/mL
AUC ([2]; torcetrapib, time 10 min): <5 µg·min/mL
AUC ([2]; torcetrapib, time 15 min): <7 µg·min/mL
AUC ([2]; torcetrapib, time 20 min): <10 µg·min/mL
AUC ([2]; torcetrapib, time 30 min): <15 µg·min/mL
AUC ([2]; torcetrapib, time 45 min): <22 µg·min/mL
AUC ([2]; torcetrapib, time 60 min): <30 µg·min/mL
AUC ([2]; torcetrapib, time 90 min): <45 µg·min/mL
solubility [3]: < 0.04 µg/mL

Reference: patent US20040132771A1, “Compositions of choleseteryl ester transfer protein inhibitors and HMG-CoA reductase inhibitors” (Pfizer Inc, priority 2002, published 2004)
